Measurements reported in paper PMC12645137 (Current Neuropharmacology, 2025).

Test system: scopolamine-induced amnesic mice
Assay: Elevated Plus Maze (EPM) test in scopolamine-induced amnesic animals
Type: in vivo, albino mice
Conditions: scopolamine 1 mg/kg amnesic mice, i.p., AN-1 10 mg/kg, progesterone 10 mg/kg, galantamine 8 mg/kg
Protocol: The mice were divided into the following five groups, and each group had six animals. The standard drug and test samples were carefully administered to the mice via the intraperitoneal route.
Group IV (Progesterone treated group) = Animals treated with 10 mg/kg progesterone and scopolamine 1 mg/kg.
Group V (Test compound group) = Animals received 10 mg/kg progesterone derivative (AN-1) and 1 mg/kg scopolamine.
The EPM behavioral test was performed to assess the learning abilities and long-term spatial memory of the experimental animals. The EPM apparatus has the appearance of a plus sign which was 50 cm elevated from the ground. The apparatus has two open arms (50 cm long and 10 cm wide), and two closed arms having dimensions of 20, 50, and 10 cm in height, length, and width, respectively. The open and closed arms were joined with a 10 × 10 central square.
After 30 minutes of the intraperitoneal drug administration on the seventh day of treatment, mice of each group were placed over the open arm end of the EPM apparatus in such a way that their faces were away from the midpoint of the apparatus. Transfer latency (TL) is the time a mouse takes to enter the closed arm entirely with all its legs from the open arm of the apparatus. The time of initial transfer latency (ITL) was observed, and then the animals were allowed freely for 1.5 minutes to search the EPM apparatus.
After twenty-four hours of the training period, test trials were conducted to determine the retention of tasks that were learnt during training. Retention transfer latency (RTL) was measured by placing the experimental mice at the open end of the apparatus, ensuring that they faced away from its midpoint. The mouse was allowed to enter the closed arm entirely with all its legs. A decline in TL compared to ITL indicated an improvement in memory.

SMILES: COc1ccc(C/N=C(/C)[C@H]2CC[C@H]3[C@@H]4CCC5=CC(=O)CC[C@]5(C)[C@H]4CC[C@]23C)cc1 [AN1, (8S,9S,10R,13S,14S)-17-((Z)-1-((4-methoxybenzyl)imino)ethyl)-10,13-dimethyl-1,2,6,7,8,9,10,11,12,13,14,15,16,17-tetradecahydro-3H-cyc-lopenta[a]phenanthren-3-one]
- retention transfer latency (RTL) (24 h after training, disease group 67 sec): 45.33 s
- initial transfer latency (ITL) (disease group 73 sec): 50.16 s
